Measured values published in the supplement of paper PMC10307832.

Columns and labels:
Experiment in all cases: relative viability (nuclei count vs DMSO), 5 days (fraction); higher = more cells survive
Alisertib + Vorinostat = compound: COc1cc(Nc2ncc3c(n2)-c2ccc(Cl)cc2C(c2c(F)cccc2OC)=NC3)ccc1C(=O)O [Alisertib] + O=C(CCCCCCC(=O)Nc1ccccc1)NO [Vorinostat] (partner 1 µM)
Method in brief: (§1)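 Dosing by pin tool came one day after lung cancer cell lines were seeded in 1536-well plates, using either one drug or a fixed anchor-drug dose plus five library-drug doses (not always all listed) in √10 steps. After 5 days, nuclei were counted on 4× images. Relative viability is treated-well nuclei count divided by vehicle-well nuclei count, and values are medians of duplicate plates.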

Alisertib + Pemetrexed = compound: COc1cc(Nc2ncc3c(n2)-c2ccc(Cl)cc2C(c2c(F)cccc2OC)=NC3)ccc1C(=O)O [Alisertib] + Nc1nc2[nH]cc(CCc3ccc(C(=O)N[C@@H](CCC(=O)O)C(=O)O)cc3)c2c(=O)[nH]1 [Pemetrexed] (partner 0.2 µM)
Method in brief: as §1

Alisertib + Dasatinib = compound: COc1cc(Nc2ncc3c(n2)-c2ccc(Cl)cc2C(c2c(F)cccc2OC)=NC3)ccc1C(=O)O [Alisertib] + Cc1nc(Nc2ncc(C(=O)Nc3c(C)cccc3Cl)s2)cc(N2CCN(CCO)CC2)n1 [Dasatinib] (partner 0.075 µM)
Method in brief: as §1

Alisertib + Palbociclib = compound: COc1cc(Nc2ncc3c(n2)-c2ccc(Cl)cc2C(c2c(F)cccc2OC)=NC3)ccc1C(=O)O [Alisertib] + CC(=O)c1c(C)c2cnc(Nc3ccc(N4CCNCC4)cn3)nc2n(C2CCCC2)c1=O [Palbociclib] (partner 0.5 µM)
Method in brief: as §1

Row | Cell Line | relative viability (Alisertib + Vorinostat; first compound 0.005 µM) | relative viability (Alisertib + Vorinostat; first compound 0.01581 µM) | relative viability (Alisertib + Vorinostat; first compound 0.05 µM) | relative viability (Alisertib + Vorinostat; first compound 0.1581 µM) | relative viability (Alisertib + Vorinostat; first compound 0.5 µM) | relative viability (Alisertib + Pemetrexed; first compound 0.005 µM) | relative viability (Alisertib + Pemetrexed; first compound 0.01581 µM) | relative viability (Alisertib + Pemetrexed; first compound 0.05 µM) | relative viability (Alisertib + Pemetrexed; first compound 0.1581 µM) | relative viability (Alisertib + Pemetrexed; first compound 0.5 µM) | relative viability (Alisertib + Dasatinib; first compound 0.005 µM) | relative viability (Alisertib + Dasatinib; first compound 0.01581 µM) | relative viability (Alisertib + Dasatinib; first compound 0.05 µM) | relative viability (Alisertib + Dasatinib; first compound 0.1581 µM) | relative viability (Alisertib + Dasatinib; first compound 0.5 µM) | relative viability (Alisertib + Palbociclib; first compound 0.005 µM) | relative viability (Alisertib + Palbociclib; first compound 0.01581 µM) | relative viability (Alisertib + Palbociclib; first compound 0.05 µM) | relative viability (Alisertib + Palbociclib; first compound 0.1581 µM) | relative viability (Alisertib + Palbociclib; first compound 0.5 µM)
1 | NCI-H441 | 0.692 | 0.723 | 0.373 | 0.217 | 0.185 | 0.288 | 0.279 | 0.249 | 0.145 | 0.142 | 0.621 | 0.332 | 0.186 | 0.165 | 0.176 | 0.182 | 0.225 | 0.117 | 0.125 | 0.123
2 | NCI-H460 | 0.683 | 0.527 | 0.0348 | 0.039 | 0.0281 | 0.0584 | 0.0653 | 0.0683 | 0.0474 | 0.0488 | 0.455 | 0.485 | 0.198 | 0.036 | 0.0218 | 0.143 | 0.13 | 0.123 | 0.0185 | 0.0401
3 | NCI-H520 | 0.588 | 0.455 | 0.325 | 0.276 | 0.208 | 0.653 | 0.491 | 0.346 | 0.273 | 0.253 | 0.218 | 0.199 | 0.148 | 0.177 | 0.159 | 0.196 | 0.232 | 0.214 | 0.177 | 0.155
4 | NCI-H522 | 0.823 | 0.897 | 0.822 | 0.521 | 0.549 | 0.743 | 1.22 | 0.989 | 0.637 | 0.516 | 0.812 | 0.91 | 0.67 | 0.323 | 0.434 | 0.877 | 1.14 | 0.975 | 0.76 | 0.519
5 | NCI-H647 | 0.49 | 0.156 | 0.106 | 0.112 | 0.0745 | 0.155 | 0.178 | 0.122 | 0.0903 | 0.0745 | 0.186 | 0.16 | 0.104 | 0.0476 | 0.0381 | 0.282 | 0.332 | 0.161 | 0.0956 | 0.0773
6 | NCI-H650 | 0.263 | 0.414 | 0.144 | 0.17 | 0.131 | 0.739 | 0.825 | 0.35 | 0.262 | 0.2 | 0.429 | 0.479 | 0.21 | 0.194 | 0.169 | 0.326 | 0.327 | 0.191 | 0.159 | 0.163
7 | NCI-H661 | 0.771 | 0.729 | 0.435 | 0.355 | 0.276 | 0.868 | 0.858 | 0.636 | 0.46 | 0.324 | 0.57 | 0.675 | 0.416 | 0.258 | 0.297 | 0.414 | 0.401 | 0.367 | 0.296 | 0.294
8 | NCI-H838 | 0.597 | 0.461 | 0.294 | 0.185 | 0.197 | 0.222 | 0.233 | 0.198 | 0.2 | 0.17 | 0.289 | 0.298 | 0.263 | 0.239 | 0.189 | 0.189 | 0.291 | 0.177 | 0.154 | 0.132
9 | NCI-H1355 | 0.589 | 0.522 | 0.525 | 0.204 | 0.177 | 0.904 | 0.875 | 0.65 | 0.27 | 0.197 | 0.691 | 0.702 | 0.664 | 0.177 | 0.184 | 0.362 | 0.393 | 0.37 | 0.291 | 0.142
10 | NCI-H1395 | 0.667 | 0.588 | 0.442 | 0.385 | 0.321 | 0.725 | 0.766 | 0.574 | 0.413 | 0.353 | 0.384 | 0.376 | 0.451 | 0.329 | 0.296 | 0.603 | 0.6 | 0.597 | 0.44 | 0.388
11 | NCI-H1437 | 0.774 | 0.606 | 0.42 | 0.283 | 0.213 | 0.28 | 0.261 | 0.235 | 0.231 | 0.166 | 0.35 | 0.403 | 0.314 | 0.17 | 0.0967 | 0.241 | 0.289 | 0.217 | 0.172 | 0.144
12 | NCI-H1650 | 0.57 | 0.488 | 0.388 | 0.176 | 0.185 | 0.402 | 0.362 | 0.256 | 0.223 | 0.189 | 0.325 | 0.298 | 0.164 | 0.138 | 0.125 | 0.292 | 0.328 | 0.233 | 0.116 | 0.188
13 | NCI-H1651 | 0.517 | 0.461 | 0.325 | 0.118 | 0.135 | 0.509 | 0.495 | 0.339 | 0.199 | 0.173 | 0.357 | 0.293 | 0.204 | 0.151 | 0.163 | 0.476 | 0.486 | 0.333 | 0.21 | 0.189
14 | NCI-H1666 | 1.01 | 0.995 | 0.846 | 0.617 | 0.555 | 0.829 | 0.844 | 0.791 | 0.672 | 0.537 | 0.693 | 0.695 | 0.527 | 0.336 | 0.323 | 0.609 | 0.585 | 0.595 | 0.551 | 0.489
15 | NCI-H1734 | 0.604 | 0.519 | 0.302 | 0.221 | 0.189 | 0.42 | 0.427 | 0.405 | 0.286 | 0.203 | 0.449 | 0.358 | 0.291 | 0.181 | 0.151 | 0.397 | 0.325 | 0.296 | 0.245 | 0.188
16 | NCI-H1755 | 0.768 | 0.776 | 0.433 | 0.386 | 0.329 | 0.443 | 0.399 | 0.386 | 0.321 | 0.34 | 0.382 | 0.467 | 0.356 | 0.221 | 0.0862 | 0.408 | 0.432 | 0.445 | 0.428 | 0.384
